Experiments:
[1] = Randomized crossover quantitative trial: plasma pharmacokinetics of nine ingredients after rikkunshito 2.5, 5.0 or 7.5 g; conditions: for AUC(0-t) / Cmax / Tmax / half-life: human, plasma, po; for AUC(0-t): AUC0-last; for AUC(0-t) / Cmax / half-life / t 1/2: geometric mean (95% CI); for Cmax: C max; for Tmax: Median t max (range); for Tmax / Median t max (range): median (minimum–maximum)
From the text: The first trial was a nonrandomized, open-label, one-period design. The second trial was a randomized, open-label, three-arm, three-period design (Fig 1). With respect to inclusion criteria, the studies included healthy Japanese adults between 20 and 45 years of age with a body mass index between 18 and 25 who were willing and able to comply with the study requirements. Exclusion criteria for this study included a history of significant liver, heart, or vessel disease and consumption of supplements that contained any rikkunshito ingredients or any drug within 3 days to 1 week before the first dose. Other standard exclusion criteria included relevant allergies, pregnant or nursing females, and any alcohol or nicotine use. The sample size was set as more than 15 based on the Ministry of Health, Labour and Welfare’s guidelines. Subjects allocated to a screening test were randomized to one of three groups by the central allocation system (allocation ratio 1:1:1). A random sequence was generated using a computer. The safety endpoint was evaluated in all volunteers. This endpoint was defined on the basis of a physician’s judgement after examination or observation that a serious adverse event had occurred. Adverse events included death, a life-threatening event, an event requiring hospitalization for treatment or an extended stay in hospital, an event resulting in permanent or temporary disability or dysfunction, an event resulting in a congenital abnormality, or any other serious medical phenomenon. With respect to side effects, no specific conditions were defined, and all adverse events for which no causal relationship with the drug could be excluded were deemed to be side effects. In each stage during the 48-h period following rikkunshito administration, the physician monitored the patient for subjective symptoms, objective findings, swelling, body temperature (axillary), blood pressure (sitting), and pulse (sitting). The physician also conducted a hematological examination to measure the patient’s red blood cell, leucocyte and platelet counts, hemoglobin level, and hematocrit value. A biochemical examination was conducted to determine total protein, blood urea nitrogen, creatinine, uric acid, aspartate aminotransferase, alanine aminotransferase, total bilirubin, alkaline phosphatase, γ-glutamyltranspeptidase albumin, prothrombin time, total cholesterol, C-reactive protein, and potassium to identify any abnormalities in comparison with the subject’s condition prior to administration. All participants fasted for 12 h before administration and 4 h after administration of the study drug.
In the second quantitative trial, 12-mL blood samples were collected at 0 (preadministration), 0.25, 0.5, 1, 2, 3, 4, 6, 8, 10, 12, 24, and 48 h after a single oral administration of rikkunshito (Lot H05142). A total of 3 daily doses were used in this trial, i.e., the clinical dose per administration (2.5 g) as the lowest dose, the clinical daily dose (7.5 g) as the highest dose, and an intermediate dose (5.0 g), to broadly discuss the pharmacokinetic characteristics of the ingredients measured. The trial participants were hospitalized overnight on the day they ingested rikkunshito, and returned home the following day after blood samples were collected at the 24-h time point. The participants returned to the hospital to provide blood samples at 48 h. The blood was immediately centrifuged at 1700 ×g for 15 min to obtain plasma. Plasma fractions were stored at −20°C or lower until analysis.
Plasma, urine, and rikkunshito formulation samples were analyzed for rikkunshito ingredients concentrations using a liquid chromatography–mass spectrometry with tandem mass spectrometer assay (LC–MS/MS; API5000, Triple Quad 6500, or QTRAP5500; AB Sciex, Tokyo, Japan) or gas chromatography–mass spectrometry. Further information of analytical methods can be found at S1 Appendix.

[2] = molecular target: T1, GHS-R (Homo sapiens, UniProt Q92847); assay: Ghrelin/GHS-R binding activity, radioligand binding using GHS-R-expressing cells (S1 Fig); conditions: n = 3, S1 Fig
T1 construct: host or cells: GHS-R-expressing cells (printed 'GSH-R-expressing cells')
T1 sequence (Q92847 whole entry, species assumed): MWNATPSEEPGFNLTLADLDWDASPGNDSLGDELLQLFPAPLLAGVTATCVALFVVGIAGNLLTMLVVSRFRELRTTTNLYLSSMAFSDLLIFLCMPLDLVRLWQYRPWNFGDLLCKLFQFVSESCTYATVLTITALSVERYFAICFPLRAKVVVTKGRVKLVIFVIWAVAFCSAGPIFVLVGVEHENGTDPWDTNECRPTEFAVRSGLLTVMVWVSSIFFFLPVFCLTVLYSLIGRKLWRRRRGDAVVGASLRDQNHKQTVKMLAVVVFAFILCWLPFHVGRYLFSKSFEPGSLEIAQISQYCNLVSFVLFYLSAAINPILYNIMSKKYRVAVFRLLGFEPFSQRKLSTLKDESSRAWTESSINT
Description: Supplementary file pone.0133159.s004.tif: S1 Fig Effect of atractylodin and atractylodin carboxylic acid on ghrelin/GHS-R binding activity. Radioligand binding was performed using GSH-R-expressing cells (n = 3). (TIF) Click here for additional data file.

[3] = Dose proportionality (linearity) test by power model for C max and AUC0-last; conditions: for Dose proportionality test using power model, Inference: linear when 90% CI of β included 1, CIlower ≥0.8, and CIupper ≤1.25; for Dose proportionality test using power model, β: rikkunshito 2.5, 5.0 or 7.5 g
Description: The dose proportionality was analyzed via a power model [21, 22]. […] Evaluation of linearity of the dosage-exposure relationship was conducted with Phoenix WinNonlin and SAS 9.2 (SAS Institute, Inc., Cary, NC).

[4] = Exploratory trial: plasma concentration of rikkunshito ingredients after single oral rikkunshito 7.5 g; assay type: in vivo; conditions: 0–8 h; rikkunshito 7.5 g; untreated plasma; BQL = below the quantification limit
Summary of the method: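 Plasma and urine levels were measured by LC–MS/MS after one 7.5 g oral dose of rikkunshito. Samples were collected before dosing and at 0.5–8 h for blood, or in 0–4 h and 4–8 h fractions for urine. Synephrine was determined after protein-removal plate cleanup; the other ingredients after β-glucuronidase deconjugation (2 h, 37°C) and SPE.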

[5] = Exploratory trial: ingredients in β-glucuronidase (enzyme)-treated plasma; assay type: in vivo, human; conditions: in vivo
Description: (§1) In the first exploratory trial, 20-mL blood samples were collected from the cutaneous vein in the subjects’ forearm via a blood sampling tube that contained heparin at 0 (preadministration), 0.5, 1, 2, 4, and 8 h after a single oral administration of rikkunshito (Lot E24652). The dose of rikkunshito used in this trial was 7.5 g/day, which is the clinical daily dose, to widely explore rikkunshito-derived ingredients that enter the blood. Along with plasma, urine samples were collected at three points: between dinner and bedtime (preadministration), between 0 and 4 h after administration, and between 4 and 8 h after administration. The blood was immediately centrifuged at 1700 ×g for 10 min to obtain plasma. Plasma and urine fractions were stored at −80°C or lower until analysis.
(§2) For quantification of 30 ingredients other than atractylodin and synephrine, 25 µL of standard solution or methanol was added to 500 µL plasma or urine samples followed by mixing. Atractylenolide III or digoxin (IS) solution (50 μL) was added to the solutions followed by mixing. For urine, 400 µL of blank plasma was added to the solutions. Ammonium acetate solution (100 mM, 100 or 400 µL) was added to the solutions followed by mixing. For enzymatic treatment, plasma and urine samples were incubated with β-glucuronidase (100 units in 100 mM ammonium acetate) for 2 h at 37°C. A solid-phase cartridge (OASIS HLB, 30 mg/1cc, Waters) was conditioned with methanol and 10 mM ammonium acetate solution, and the samples were loaded onto the cartridge. The cartridge was washed water : methanol (9:1, v/v), and 1.5 mL of methanol and 30 µL of propylene glycol were added to the cartridge to elute the analytes. The mixtures were dried at 25°C under a stream of nitrogen gas. Furthermore, 100 μL of 10 mM ammonium acetate : methanol (8:2, v/v) was added to the dried samples followed by mixing and sonication. The solutions were filtered (0.22 µm) and followed by injection into the LC–MS/MS system. […] Those analytical conditions are summarized in S2 Table and S3 Table.

[6] = Exploratory trial: amount of rikkunshito ingredients in urine; assay type: in vivo, human
Summary of the method: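 LC–MS/MS measurement of rikkunshito constituents in urine fractions (pre-dose, 0–4 h, 4–8 h) following one 7.5 g oral dose. Other constituents: enzymatic deglucuronidation at 37 °C for 2 h, then SPE cleanup with atractylenolide III or digoxin as IS; synephrine: erythromycin IS, Ostro plate.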

[7] = Exploratory trial: ingredients in β-glucuronidase (enzyme)-treated urine; assay type: in vivo, human; conditions: human, in vivo
Description: as §1, §2

[8] = Stability of ingredients in gastric pH solution (pH 1.2, 37°C); assay type: physicochemical
Description: Rikkunshito gradually dissolved in acidic solution (pH 1.2) at 37°C, and the concentration of atractylodin after adding 0.25, 0.5, 1, and 2 h was measured by gas chromatography–mass spectrometry.

[9] = system: ghrelin secretion; conditions: cited from earlier work
[10] = system: 5-HT2BR; set-up: method as in PMID 18439428; conditions: cited from earlier work
[11] = system: 5-HT2CR; set-up: method as in PMID 18439428; conditions: cited from earlier work
[12] = system: cisplatin-induced anorexia model; conditions: cited from earlier work
[13] = of the ingredient in the formulation; summary table, reference not given; cited from earlier work
[14] = Formation of ingredients derived from rikkunshito in formulation, blood, and urine (S11 Table summary); conditions: after rikkunshito administration, per ingredient in the formulation
[15] = 2.5 g, rikkunshito 2.5 g single oral, n = 21
[16] = 5 g, rikkunshito 5.0 g single oral, n = 19
[17] = 7.5 g, rikkunshito 7.5 g single oral, n = 19
[18] = rikkunshito 7.5 g single oral, n = 19
[19] = rikkunshito 7.5 g single oral, n = 19, listed as atractylodin carboxylic acid
[20] = oral administration at a dose of 4.0 mg/kg

For `O=C(O)/C=C/C#CC#C/C=C/c1ccco1` [Atractylodin carboxylic acid], the “C max of metabolite relative to unchanged form (atractylodin)” value ([1]; after administration of 7.5 g rikkunshito) was 5.7–31.5 fold, the AUC(0-t) [1, 15] was 3.91 ng·h/mL and the Cmax [1, 15] was 4.45 ng/mL. It also gave a Tmax [1, 15] of 15 min, a half-life ([1]; 2.5 g, t 1/2, rikkunshito 2.5 g single oral, n = 21) of 34.8 min and an AUC(0-t) [1, 16] of 8.74 ng·h/mL. It also gave a Cmax [1, 16] of 9.57 ng/mL, a Tmax [1, 16] of 15 min and a half-life ([1]; 5 g, t 1/2, rikkunshito 5.0 g single oral, n = 19) of 38.2 min. For the same compound, the AUC(0-t) [1, 17] was 12.7 ng·h/mL, the Cmax [1, 17] was 14.3 ng/mL and the “t 1/2” value [1, 18] was 0.663 (0.560–0.790) h. The “t 1/2” value [1, 19] was < 10 h, the “Median t max (range)” value [1, 18] was 0.250 (0.250–0.500) h and the “Median t max (range)” value [1, 19] was ≤ 1 h. The “Ghrelin/GHS-R binding (ghrelin signal enhancement) activity compared with atractylodin” value [2] was “as potent as atractylodin”, the “Dose proportionality test using power model, Inference” value ([3]; AUC0-last) was “Linear” and the “Dose proportionality test using power model, β” value ([3]; AUC0-last) was 1.08. For the same compound, the “Dose proportionality test using power model, Inference” value ([3]; Cmax) was “Linear” and the “Dose proportionality test using power model, β” value ([3]; Cmax) was 1.05.

In the case of `COc1ccc([C@@H]2CC(=O)c3c(O)cc(O)cc3O2)cc1O` [Hesperetin], the “Plasma concentration at all time points” value [4] is reported as “BQL”, the Cmax ([5]; human) is reported as 0.799 ng/mL and the concentration at 2 h ([5]; human) is reported as 0.227 ± 0.264 ng/mL. For the same compound, the concentration at 4 h ([5]; human) was 0.799 ± 0.408 ng/mL, the concentration at 8 h ([5]; human) was 0.307 ± 0.289 ng/mL and the “Plasma concentration in enzyme-treated plasma, 0 h” value [5] was “BQL”. For the same compound, the “Plasma concentration in enzyme-treated plasma, 0.5 h” value [5] was “BQL”, the “Plasma concentration in enzyme-treated plasma, 1 h” value [5] was “BQL” and the “Amount in urine, Pre” value ([6]; human, in vivo) was 213 ± 390 ng. The “Amount in urine, 0–4 h” value ([6]; human, in vivo, po) was 462 ± 418 ng, the “Amount in enzyme-treated urine, 0–4 h” value [7] was 7130 ± 9290 ng and the “Amount in enzyme-treated urine, 4–8 h” value [7] was 56750 ± 37530 ng. The “Amount in enzyme-treated urine, Pre” value [7] was 4290 ± 7690 ng, the “Increase of urine concentration after β-glucuronidase treatment compared with before treatment” value [7] was “more than 10 fold” and the “Stability in gastric pH solution, Quantitative value” (“Stability in gastric pH solution” for short) ([8]; 0.5 h, pH 1.2) was 4.38 ng/mL. The “Stability in gastric pH solution” value ([8]; 1 h, pH 1.2) was 4.36 ng/mL, the “Stability in gastric pH solution” value ([8]; 2 h, pH 1.2) was 3.90 ng/mL and the “Known pharmacology activities: ghrelin secretion” value [9] was “Ghrelin secretion promoting activity [14, 15]”. The 5-HT2BR inhibitory/antagonistic activity [10] was “inhibit” and the 5-HT2CR inhibitory activity [11] was “inhibit”.

With `COc1ccc([C@@H]2CC(=O)c3c(O)cc(O[C@@H]4O[C@H](CO[C@@H]5O[C@@H](C)[C@H](O)[C@@H](O)[C@H]5O)[C@@H](O)[C@H](O)[C@H]4O)cc3O2)cc1O` [Hesperidin] the “Amount in urine, 0–4 h” value ([6]; 0–4 h after single oral rikkunshito 7.5 g, mean ± S.D., n = 4) was 184 ± 60.5 ng, the “Amount in urine, 4–8 h” value ([6]; 4–8 h after single oral rikkunshito 7.5 g, mean ± S.D., n = 4) was 68.6 ± 47.9 ng and the “Amount in urine, Pre” value ([6]; preadministration (between dinner and bedtime), mean ± S.D., n = 4) was 28.9 ± 57.8 ng. The “Stability in gastric pH solution” value ([8]; rikkunshito in acidic solution (pH 1.2) at 37°C, 0.5 h) was 2860 ng/mL, the “Stability in gastric pH solution” value ([8]; rikkunshito in acidic solution (pH 1.2) at 37°C, 1 h) was 3130 ng/mL and the “Stability in gastric pH solution” value ([8]; rikkunshito in acidic solution (pH 1.2) at 37°C, 2 h) was 2570 ng/mL. The “Appetite following cisplatin administration” value [12, 20] was “improves decreased appetite”, the “Plasma ghrelin concentration following cisplatin administration” value [12, 20] was “inhibits a decrease in plasma ghrelin concentration” and the “Acylated ghrelin level in blood” value ([12]; oral administration, cisplatin-induced anorexia model) was “suppressed the decrease of the acylated ghrelin level in blood in a concentration-dependent manner”. The Metabolite by enterobacterium [13] was “Hesperetin”, the “Formation of ingredients: form found in Blood” value [14] was “Conjugate metabolites of hesperetin” and the “Formation of ingredients: form found in Urine” value ([14]; BQL = below the quantification limit) was “Hesperidin Hesperetin Conjugate metabolites of hesperetin”.

Source: publication PMC4506051, “Pharmacokinetic Profiles of Active Ingredients and Its Metabolites Derived from Rikkunshito, a Ghrelin Enhancer, in Healthy Japanese Volunteers: A Cross-Over, Randomized Study” (PLoS ONE, 2015)
